Structures are written as SMILES.

The experiment addresses Programmed cell death 1 ligand 1 (Homo sapiens, UniProt Q9NZQ7). Kind of experiment: Binding affinity to His-tagged PD-L1 (unknown origin) assessed as inhibition of interaction with PD1 preincubated for 15 mins followed by PD1 addition measured after 15 mins by HTRF assay. On the technique in general: Time-resolved FRET reads energy transfer from a long-lived donor to a nearby acceptor.

Programmed cell death 1 ligand 1, sequence (Q9NZQ7 whole entry): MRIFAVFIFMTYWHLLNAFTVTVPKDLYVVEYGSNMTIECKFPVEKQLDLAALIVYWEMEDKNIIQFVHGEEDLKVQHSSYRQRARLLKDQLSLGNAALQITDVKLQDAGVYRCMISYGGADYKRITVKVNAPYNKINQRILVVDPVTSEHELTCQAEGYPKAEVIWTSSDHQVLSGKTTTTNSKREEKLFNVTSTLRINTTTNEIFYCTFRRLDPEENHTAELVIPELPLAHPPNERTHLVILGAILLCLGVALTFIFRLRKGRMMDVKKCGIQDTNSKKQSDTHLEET

Consider `Cc1cc(CN2CCC(C(=O)NCCO)CC2)ccc1OCc1cccc(-c2ccccc2)c1C`, for which the IC50 – broadly, the midpoint of a concentration-inhibition curve – was found to be 110 nM.
Next, `COc1cc(OCc2cccc(-c3ccccc3)c2C#N)cc(OC)c1CN1CCCC[C@H]1C(=O)O`: 6 nM.
